# Results reported in US5635477A, “Cyclic compounds useful as inhibitors of platelet glycoprotein IIB/IIIA” (The DuPont Merck Pharmaceutical Company, priority 1995, dated 1997).
# Entries after “also recorded” stand apart in the source; their conditions may differ. Like-named read-outs stand apart in the source and are kept apart here. Starred links: 1 amine or outer side, 2 acyl side, 3 side chain; linkers in the order of their positions; H or OH if unused. Non-standard residues stand in square brackets, D forms with d. Residues, ends and D or L forms follow the SMILES beside them. X5 = O=C(c1ccc(I)c(CN[*:1])c1)[*:2]; X4 = O=C(c1cc(CN[*:1])ccc1Cl)[*:2]; NMeOrn(Me) = CNCCC[C@H](NC)C(=O)O; NMeR = CN[C@@H](CCCNC(=N)N)C(=O)O; X3 = Cc1ccc(CN[*:1])cc1C(=O)[*:2]; X8 = O=C(c1cc(CN[*:1])ccc1I)[*:2]; 3Amb = NCc1cccc(C(=O)O)c1; dAbu = CC[C@@H](N)C(=O)O
# What was measured:
# [1] = target: T1, purified GPIIb/IIIa receptors obtained from human platelets (Homo sapiens, UniProt P05106+P08514); assay: purified GPIIb/IIIa-biotinylated fibrinogen ELISA; type: binding; conditions: competitive; Michaelis-Menten analysis
# T1 construct: purified GPIIb/IIIa receptors obtained from human platelets; from tissue; host or cells: human platelets
# Source text: (§1) This effect may explain the lyric efficacy of the compounds of the present invention.
# [2] = target: agonist-induced platelet aggregation (Homo sapiens, UniProt P05106+P08514); assay: Platelet Aggregation Assay; type: cell-based; conditions: human PRP; for IC50: agonist-induced aggregation
# Method: Blood was collected into 10 ml citrated Vacutainer tubes.
# [3] = target: T2, platelet GPIIb/IIIa receptor (Homo sapiens, UniProt P05106+P08514); assay: Platelet-Fibrinogen Binding Assay (125I-fibrinogen, h-GPP); conditions: fibrinogen bound 20 minutes before compound
# T2 construct: Human PRP (h-PRP) was applied to a Sepharose column for the purification of platelet fractions; endogenous in cells; host or cells: human gel-purified platelets (h-GPP) from donor platelet-rich plasma
# Method: Platelet-Fibrinogen Binding Assay: Binding of ^125 I-fibrinogen to platelets was performed as described by Bennett et al. (1983) Proc. Natl. Acad. Sci. USA 80: 2417-2422, with some modifications as described below. Human PRP (h-PRP) was applied to a Sepharose column for the purification of platelet fractions. Aliquots of platelets (5×10^8 cells) along with 1 mM calcium chloride were added to removable 96 well plates prior to the activation of the human gel purified platelets (h-GPP). Activation of the human gel purified platelets was achieved using ADP, collagen, arachidonate, epinephrine, and/or thrombin in the presence of the ligand, ^125 I-fibrinogen. The ^125 I-fibrinogen bound to the activated, platelets was separated from the free form by centrifugation and then counted on a gamma counter.
# [4] = system: activated human platelets; assay: binding of 3H-labeled Compound A to activated human platelets; conditions: Scatchard analysis
# Source text: as §1
# [5] = system: already formed platelet-rich clot; conditions: for lytic effect on already formed platelet-rich clot: varying concentrations
# Method: Thrombolytic Assay: Venous blood was obtained from the arm of a healthy human donor who was drug-free and aspirin free for at least two weeks prior to blood collection, and placed into 10 ml citrated Vacutainer tubes. The blood was centrifuged for 15 minutes at 1500 ×g at room temperature, and platelet rich plasma (PRP) was removed. To the PRP was then added 1×10^- 3M of the agonist ADP, epinephrine, collagen, arachidonate, serotonin or thrombin, or a mixture thereof, and the PRP incubated for 30 minutes. The PRP was centrifuged for 12 minutes at 2500×g at room temperature. The supernatant was then poured off, and the platelets remaining in the test tube were resuspended in platelet poor plasma (PPP), which served as a plasminogen source. The suspension was then assayed on a Coulter Counter (Coulter Electronics, Inc., Hialeah, Fla.), to determine the platelet count at the zero time point. After obtaining the zero time point, test compounds were added at various concentrations. Test samples were taken at various time points and the platelets were counted using the Coulter Counter. To determine the percent of lysis, the platelet count at a time point subsequent to the addition of the test compound was subtracted from the platelet count at the zero time point, and the resulting number divided by the platelet count at the zero time point. […] For the IC50 evaluation, the test compounds were added at various concentrations, and the percentage of lysis caused by the test compounds was calculated.
# Compounds A and B were also tested at varying concentrations using the thrombolytic assay described above (FIG. Ib). […] The clot was formed by incubating platelets with a mixture of agonists (TEAC mixture), which consists of thrombin (0.01 U/ml), epinephrine (250 uM), ADP (250 uM), and collagen (10 ug.ml), for 30 minutes. As a comparison, a linear peptide of sequence arginine-glycine-aspartic acid-serine (RGDS) was also tested in the thrombolytic assay.
# [6] = system: thrombus in the femoral artery; assay: in vivo thrombolysis, modified Lucchesi model; conditions: listed as Compound A
# Source text: Data represent mean±SEM. n=3-6 in each group.
# [7] = system: femoral artery reocclusion; assay: femoral artery reocclusion post-thrombolysis; type: in vivo, canine (male or female mongrel dogs)
# Method: Effects of Compound A vs saline, when given to anesthetized canine (male or female mongrel dogs) at 1.0 mg/kg I.V., on the incidence of femoral artery reocclusion post-thrombolysis with streptokinase (250-300×1000 IU/kg) or t-PA. […] Data represents mean ±SEM, n=6 in each group.
# [8] = system: platelet granular secretion; conditions: cited from earlier work
# Sequence of agonist-induced platelet aggregation (P08514 32-1039): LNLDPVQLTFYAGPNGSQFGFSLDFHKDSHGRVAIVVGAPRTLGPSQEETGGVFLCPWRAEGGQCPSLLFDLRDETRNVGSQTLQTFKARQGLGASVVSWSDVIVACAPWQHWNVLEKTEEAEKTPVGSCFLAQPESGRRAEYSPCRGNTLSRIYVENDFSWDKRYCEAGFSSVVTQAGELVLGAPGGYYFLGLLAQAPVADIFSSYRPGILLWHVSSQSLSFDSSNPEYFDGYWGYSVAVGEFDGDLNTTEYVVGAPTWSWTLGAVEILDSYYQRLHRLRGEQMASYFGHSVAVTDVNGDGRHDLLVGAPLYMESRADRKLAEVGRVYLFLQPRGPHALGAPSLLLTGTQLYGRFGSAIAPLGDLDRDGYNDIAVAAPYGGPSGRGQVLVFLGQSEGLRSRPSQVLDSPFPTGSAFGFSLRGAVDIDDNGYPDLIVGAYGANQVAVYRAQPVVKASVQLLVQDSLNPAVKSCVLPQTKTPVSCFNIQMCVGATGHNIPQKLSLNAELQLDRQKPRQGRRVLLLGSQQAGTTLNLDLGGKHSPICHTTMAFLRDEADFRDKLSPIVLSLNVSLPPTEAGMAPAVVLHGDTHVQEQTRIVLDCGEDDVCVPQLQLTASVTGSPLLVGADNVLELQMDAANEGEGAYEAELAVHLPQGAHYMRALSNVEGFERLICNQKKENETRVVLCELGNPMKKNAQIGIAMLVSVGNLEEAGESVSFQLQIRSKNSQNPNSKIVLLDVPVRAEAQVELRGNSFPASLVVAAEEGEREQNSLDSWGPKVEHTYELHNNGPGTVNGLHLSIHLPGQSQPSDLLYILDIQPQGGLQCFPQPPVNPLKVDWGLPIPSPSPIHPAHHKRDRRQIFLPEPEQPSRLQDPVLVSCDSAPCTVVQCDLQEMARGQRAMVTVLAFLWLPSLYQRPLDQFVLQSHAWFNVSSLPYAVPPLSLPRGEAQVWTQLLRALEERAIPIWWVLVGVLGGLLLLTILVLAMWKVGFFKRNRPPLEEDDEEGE
# Sequence of agonist-induced platelet aggregation (P05106 27-788): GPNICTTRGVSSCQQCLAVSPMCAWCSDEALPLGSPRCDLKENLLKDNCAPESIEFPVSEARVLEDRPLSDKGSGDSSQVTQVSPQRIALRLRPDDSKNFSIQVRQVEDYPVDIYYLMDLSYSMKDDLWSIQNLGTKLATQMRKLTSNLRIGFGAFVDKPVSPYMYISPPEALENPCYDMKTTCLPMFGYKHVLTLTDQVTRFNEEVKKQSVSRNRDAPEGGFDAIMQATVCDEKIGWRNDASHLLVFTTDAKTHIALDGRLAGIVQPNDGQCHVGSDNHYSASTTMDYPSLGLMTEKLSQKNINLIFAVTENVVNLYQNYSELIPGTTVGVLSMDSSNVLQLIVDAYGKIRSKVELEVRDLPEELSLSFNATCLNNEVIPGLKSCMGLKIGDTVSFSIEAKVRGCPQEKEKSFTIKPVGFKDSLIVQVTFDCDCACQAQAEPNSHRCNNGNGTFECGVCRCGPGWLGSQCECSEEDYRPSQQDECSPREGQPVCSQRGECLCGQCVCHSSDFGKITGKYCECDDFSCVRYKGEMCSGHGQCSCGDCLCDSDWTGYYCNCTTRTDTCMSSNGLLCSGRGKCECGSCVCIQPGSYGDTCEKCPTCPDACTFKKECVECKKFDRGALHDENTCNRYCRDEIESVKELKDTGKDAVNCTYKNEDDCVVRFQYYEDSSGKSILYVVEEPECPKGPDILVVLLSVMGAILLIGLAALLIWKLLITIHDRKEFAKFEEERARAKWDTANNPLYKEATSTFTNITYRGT
# T2 sequence (P08514 32-887 limits assumed): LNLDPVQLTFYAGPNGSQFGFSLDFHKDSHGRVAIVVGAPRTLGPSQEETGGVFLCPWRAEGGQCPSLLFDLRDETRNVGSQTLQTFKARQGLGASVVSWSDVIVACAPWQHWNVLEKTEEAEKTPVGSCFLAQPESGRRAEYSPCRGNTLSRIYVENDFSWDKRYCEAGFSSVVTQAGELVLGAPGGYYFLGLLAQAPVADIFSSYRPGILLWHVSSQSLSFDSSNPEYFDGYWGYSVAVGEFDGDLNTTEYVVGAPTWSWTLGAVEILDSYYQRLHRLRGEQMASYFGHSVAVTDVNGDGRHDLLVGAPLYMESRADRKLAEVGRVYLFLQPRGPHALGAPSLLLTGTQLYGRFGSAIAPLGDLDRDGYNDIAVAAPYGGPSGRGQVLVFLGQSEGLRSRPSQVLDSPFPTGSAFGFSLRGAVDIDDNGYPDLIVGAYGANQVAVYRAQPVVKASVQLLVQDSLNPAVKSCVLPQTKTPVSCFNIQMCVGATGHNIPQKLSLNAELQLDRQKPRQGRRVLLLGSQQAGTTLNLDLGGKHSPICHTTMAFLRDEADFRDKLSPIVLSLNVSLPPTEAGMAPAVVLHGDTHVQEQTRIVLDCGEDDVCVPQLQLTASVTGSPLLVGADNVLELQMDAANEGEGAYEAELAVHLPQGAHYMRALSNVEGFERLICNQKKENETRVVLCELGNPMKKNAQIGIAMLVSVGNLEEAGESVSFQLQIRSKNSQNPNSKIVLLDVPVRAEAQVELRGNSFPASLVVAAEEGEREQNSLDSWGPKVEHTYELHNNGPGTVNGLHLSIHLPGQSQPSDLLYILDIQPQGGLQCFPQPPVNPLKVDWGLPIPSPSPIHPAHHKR
# T2 sequence (P08514 891-1039 partner limits assumed): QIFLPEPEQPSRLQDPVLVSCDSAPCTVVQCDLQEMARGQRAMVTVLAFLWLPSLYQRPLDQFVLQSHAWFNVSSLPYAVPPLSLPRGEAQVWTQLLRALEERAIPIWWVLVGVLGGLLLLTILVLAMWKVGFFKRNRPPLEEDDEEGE
# T2 sequence (P05106 27-788): as the sequence (P05106 27-788) above
# T1 sequence (P08514 32-887 limits assumed): as the sequence (P08514 32-887 limits assumed) above
# T1 sequence (P08514 891-1039 partner limits assumed): as the sequence (P08514 891-1039 partner limits assumed) above
# T1 sequence (P05106 27-788): as the sequence (P05106 27-788) above
compound,measurement,setting,value
"CC[C@H]1NC(=O)c2cccc(c2)CNC(=O)[C@H](CC(=O)O)NC(=O)CNC(=O)[C@H](CCCN=C(N)N)N(C)C1=O [Example 3, cyclo-(D-Abu-NMeArg-Gly-Asp-Mamb)] (cyclo([NMeR]GD[3Amb][dAbu]))",Ki,[1],0.4 nM
"CC[C@H]1NC(=O)c2cccc(c2)CNC(=O)[C@H](CC(=O)O)NC(=O)CNC(=O)[C@H](CCCNC(=N)N)N(C)C1=O [Example 3, cyclo-(D-Abu-NMeArg-Gly-Asp-Mamb)] (cyclo([NMeR]GD[3Amb][dAbu]))",deaggregation of platelets,[2]; added after initiation of aggregation,deaggregate platelets after the initiation of aggregation
same,IC50,[2],< 1000 nM
same,displacement of 125I-fibrinogen bound to activated platelets,[3],displace ^125 I-fibrinogen bound to activated platelets
same,Kd,[4],0.1 nM
same,lysis percentage,"[5]; 0.001 mM, platelet stimulation 1x10^-3 M ADP",≥ 70%
same,lytic effect on already formed platelet-rich clot,[5]; listed as A,significant lyric efficacy of pre-formed platelet rich-clot
same,lytic effect on already formed platelet-rich clot,[5]; listed as Compound A,significant lytic effect on the clot
same,in vivo thrombolytic efficacy with streptokinase,[6]; 1 mg/kg I.V. plus sub-optimum streptokinase (75 KU),significant synergistic effect in fully lysing the thrombus; also recorded: increase in in vivo thrombolytic efficacy while allowing a significantly lower dose of streptokinase
same,in vivo thrombolytic efficacy alone,[6]; 1 mg/kg I.V.,significant lysis of an already formed thrombus in the femoral artery; also recorded: good in vivo thrombolytic efficacy
same,period without reocclusion,"[7]; 1.0 mg/kg I.V., post-thrombolysis",> 240 min
same,prevention of reocclusion,"[7]; 1.0 mg/kg I.V., post-thrombolysis with streptokinase or t-PA",100%
same,reocclusion following SK or t-PA thrombolysis,"[7]; dog, in vivo",virtually no reocclusion
"CC(C)[C@H]1NC(=O)c2cccc(c2)CNC(=O)[C@H](CC(=O)O)NC(=O)CNC(=O)[C@H](CCCNC(=N)N)N(C)C1=O [Example 4, cyclo-(D-Val-NMeArg-Gly-Asp-Mamb)]",IC50,[2],< 1000 nM
same,IC50,[5],500 to 1000 nM
same,"thrombolytic effect in combination with tPA, urokinase or streptokinase","[5]; in vitro, pre-formed platelet-rich clot",significantly better than the additive effects of both agents
same,lytic effect on already formed platelet-rich clot,[5]; listed as B,significant lyric efficacy of pre-formed platelet rich-clot
same,lytic effect on already formed platelet-rich clot,[5]; listed as Compound B,significant lytic effect on the clot
"CC(C)[C@H]1NC(=O)c2cccc(c2)CNC(=O)[C@H](CC(=O)O)NC(=O)[C@H](C)NC(=O)[C@H](CCCNC(=N)N)N(C)C1=O [Example 58c, cyclo-(D-Val-NMeArg-L-Ala-Asp-Mamb)] (cyclo([3Amb][dV][NMeR]AD))",IC50,[2],10000 to 100000 nM
"CC(C)[C@H]1NC(=O)c2cccc(c2)CNC(=O)[C@H](CC(=O)O)N(C)C(=O)CNC(=O)[C@H](CCCNC(=N)N)N(C)C1=O [Example 64b, cyclo-(D-Val-NMeArg-Gly-NMeAsp-Mamb)]",IC50,[2],1000 to 10000 nM
"CC(C)[C@H]1NC(=O)c2cccc(c2)CNC(=O)[C@@H](CC(=O)O)NC(=O)CNC(=O)[C@H](CCCNC(=N)N)N(C)C1=O [Example 64c, cyclo-(D-Val-NMeArg-Gly-D-Asp-Mamb)]",IC50,[2],1000 to 10000 nM
"CC(C)[C@H]1NC(=O)c2ccc3cccc(c3c2)CNC(=O)[C@H](CC(=O)O)NC(=O)CNC(=O)[C@H](CCCNC(=N)N)N(C)C1=O [Example 89c, cyclo-(D-Val-NMeArg-Gly-Asp-aminomethylnaphthoic acid)]",IC50,[2],1000 to 10000 nM
"CC[C@H]1NC(=O)c2ccc(I)c(c2)CNC(=O)[C@H](CC(=O)O)NC(=O)CNC(=O)[C@H](CCCNC(=N)N)N(C)C1=O [Example 89d, cyclo-(D-Abu-NMeArg-Gly-Asp-iodo-Mamb)] (cyclo([NMeR]GD[X5][dAbu]))",IC50,[2],< 1000 nM
"CC[C@H]1NC(=O)c2cccc(c2)CNC(=O)[C@H](CC(=O)O)NC(=O)CNC(=O)[C@H](CCCNC)N(C)C1=O [Example 89e, cyclo-(D-Abu-di-NMeOrn-Gly-Asp-Mamb)] (cyclo([dAbu][NMeOrn(Me)]GD[3Amb]))",IC50,[2],1000 to 10000 nM
"CC(C)[C@H]1NC(=O)c2ccccc2CNC(=O)[C@H](CC(=O)O)NC(=O)CNC(=O)[C@H](CCCNC(=N)N)N(C)C1=O [Example 91, cyclo-(D-Val-NMeArg-Gly-Asp-2-aminomethylbenzoic acid)]",IC50,[2],< 1000 nM
"CC(C)[C@H]1NC(=O)Cc2cccc(c2)NC(=O)[C@H](CC(=O)O)NC(=O)CNC(=O)[C@H](CCCNC(=N)N)N(C)C1=O [Example 92, cyclo-(D-Val-NMeArg-Gly-Asp-3-aminophenylacetic acid)]",IC50,[2],< 1000 nM
"CC(C)[C@H]1NC(=O)c2ccc(Cl)c(c2)CNC(=O)[C@H](CC(=O)O)NC(=O)CNC(=O)[C@H](CCCNC(=N)N)N(C)C1=O [Example 93, cyclo-(D-Val-NMeArg-Gly-Asp-3-aminomethyl-4-chlorobenzoic acid)]",IC50,[2],< 1000 nM
"CC(C)[C@H]1NC(=O)c2ccc(I)c(c2)CNC(=O)[C@H](CC(=O)O)NC(=O)CNC(=O)[C@H](CCCNC(=N)N)N(C)C1=O [Example 94, cyclo-(D-Val-NMeArg-Gly-Asp-iodo-Mamb)]",IC50,[2],< 1000 nM
"CC(C)[C@H]1NC(=O)c2cc(ccc2Cl)CNC(=O)[C@H](CC(=O)O)NC(=O)CNC(=O)[C@H](CCCNC(=N)N)N(C)C1=O [Example 97, cyclo-(D-Val-NMeArg-Gly-Asp-3-aminomethyl-6-chlorobenzoic acid)]",IC50,[2],< 1000 nM
"CC[C@H]1NC(=O)c2cc(ccc2Cl)CNC(=O)[C@H](CC(=O)O)NC(=O)CNC(=O)[C@H](CCCNC(=N)N)N(C)C1=O [Example 100a, cyclo-(D-Abu-NMeArg-Gly-Asp-3-aminomethyl-6-chlorobenzoic acid)] (cyclo([NMeR]GD[X4][dAbu]))",IC50,[2],< 1000 nM
"CC[C@H]1NC(=O)c2cc(ccc2I)CNC(=O)[C@H](CC(=O)O)NC(=O)CNC(=O)[C@H](CCCNC(=N)N)N(C)C1=O [Example 100b, cyclo-(D-Abu-NMeArg-Gly-Asp-3-aminomethyl-6-iodobenzoic acid)] (cyclo([NMeR]GD[X8][dAbu]))",IC50,[2],< 1000 nM
"CC[C@H]1NC(=O)c2cc(ccc2C)CNC(=O)[C@H](CC(=O)O)NC(=O)CNC(=O)[C@H](CCCNC(=N)N)N(C)C1=O [Example 100c, cyclo-(D-Abu-NMeArg-Gly-Asp-3-aminomethyl-6-methylbenzoic acid)] (cyclo([NMeR]GD[X3][dAbu]))",IC50,[2],< 1000 nM
"CC(=O)Oc1ccccc1C(=O)O [aspirin, acetylsalicyclic acid, reference compound]","effect on platelet granular secretion (PAI-1, serotonin)",[8],inhibit platelet granular secretion
hirudin,"effect on platelet granular secretion (PAI-1, serotonin)",[8],inhibit platelet granular secretion
